Test results as given in patent US8541418B2, “Inhibitors of polo-like kinase” (Elan Pharmaceutical, Inc., priority 2009, dated 2013).
Read-outs that look alike come from different tables or passages of the source.

Columns and labels:
Type in all cases: biochemical
PLK1 = PLK1 (Homo sapiens, UniProt P53350); assay: PLK TR-FRET peptide assay, PLK1
PLK3 = PLK3 (Homo sapiens, UniProt Q9H4B4); assay: PLK TR-FRET peptide assay, PLK3
PLK2 = PLK2 (Homo sapiens, UniProt Q9NYY3); assay: PLK TR-FRET peptide assay, PLK2; details: for IC50: PLK TR-FRET peptide assay, read-out: Plk2 IC50; for relative PLK2 activity of the enantiomers: compared with the opposite enantiomer
PLK2, sequence (Q9NYY3 whole entry): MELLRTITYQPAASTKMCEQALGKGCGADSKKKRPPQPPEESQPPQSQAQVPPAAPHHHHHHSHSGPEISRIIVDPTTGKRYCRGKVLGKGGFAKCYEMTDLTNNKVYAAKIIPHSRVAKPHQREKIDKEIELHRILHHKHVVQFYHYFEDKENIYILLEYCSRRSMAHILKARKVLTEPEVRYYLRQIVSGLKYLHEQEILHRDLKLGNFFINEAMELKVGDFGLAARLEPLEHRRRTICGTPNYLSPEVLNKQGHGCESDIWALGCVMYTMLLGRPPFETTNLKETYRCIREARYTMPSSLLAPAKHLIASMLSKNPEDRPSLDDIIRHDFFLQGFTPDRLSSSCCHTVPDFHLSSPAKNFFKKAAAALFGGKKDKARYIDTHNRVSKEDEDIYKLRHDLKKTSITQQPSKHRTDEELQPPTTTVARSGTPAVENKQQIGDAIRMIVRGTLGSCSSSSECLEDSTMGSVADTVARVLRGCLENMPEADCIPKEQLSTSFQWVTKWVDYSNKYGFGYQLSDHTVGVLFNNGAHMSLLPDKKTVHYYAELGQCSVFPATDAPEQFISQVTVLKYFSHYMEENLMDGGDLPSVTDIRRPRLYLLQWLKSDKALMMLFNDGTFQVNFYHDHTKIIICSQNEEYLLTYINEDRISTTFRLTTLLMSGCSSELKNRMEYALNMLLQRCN

[1] = GST-PLK3, 15 min reaction, read-out: Plk3 IC50

PLK1, sequence (P53350 whole entry): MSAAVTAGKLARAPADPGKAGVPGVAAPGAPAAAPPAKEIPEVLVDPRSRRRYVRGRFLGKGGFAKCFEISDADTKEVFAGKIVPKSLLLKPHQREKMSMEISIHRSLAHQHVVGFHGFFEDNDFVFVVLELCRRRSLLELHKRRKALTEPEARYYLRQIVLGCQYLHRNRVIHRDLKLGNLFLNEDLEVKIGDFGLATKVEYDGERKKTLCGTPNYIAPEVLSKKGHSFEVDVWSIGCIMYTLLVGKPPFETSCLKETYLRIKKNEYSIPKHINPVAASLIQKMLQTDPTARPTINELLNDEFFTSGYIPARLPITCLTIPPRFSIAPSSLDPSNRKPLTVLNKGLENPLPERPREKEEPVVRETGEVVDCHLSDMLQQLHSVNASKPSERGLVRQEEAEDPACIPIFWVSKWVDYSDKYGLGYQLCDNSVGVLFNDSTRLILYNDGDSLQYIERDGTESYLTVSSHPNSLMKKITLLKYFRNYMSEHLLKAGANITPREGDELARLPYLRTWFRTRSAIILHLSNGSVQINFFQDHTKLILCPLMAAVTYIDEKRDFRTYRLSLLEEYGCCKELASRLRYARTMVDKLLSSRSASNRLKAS
PLK3, sequence (Q9H4B4 whole entry): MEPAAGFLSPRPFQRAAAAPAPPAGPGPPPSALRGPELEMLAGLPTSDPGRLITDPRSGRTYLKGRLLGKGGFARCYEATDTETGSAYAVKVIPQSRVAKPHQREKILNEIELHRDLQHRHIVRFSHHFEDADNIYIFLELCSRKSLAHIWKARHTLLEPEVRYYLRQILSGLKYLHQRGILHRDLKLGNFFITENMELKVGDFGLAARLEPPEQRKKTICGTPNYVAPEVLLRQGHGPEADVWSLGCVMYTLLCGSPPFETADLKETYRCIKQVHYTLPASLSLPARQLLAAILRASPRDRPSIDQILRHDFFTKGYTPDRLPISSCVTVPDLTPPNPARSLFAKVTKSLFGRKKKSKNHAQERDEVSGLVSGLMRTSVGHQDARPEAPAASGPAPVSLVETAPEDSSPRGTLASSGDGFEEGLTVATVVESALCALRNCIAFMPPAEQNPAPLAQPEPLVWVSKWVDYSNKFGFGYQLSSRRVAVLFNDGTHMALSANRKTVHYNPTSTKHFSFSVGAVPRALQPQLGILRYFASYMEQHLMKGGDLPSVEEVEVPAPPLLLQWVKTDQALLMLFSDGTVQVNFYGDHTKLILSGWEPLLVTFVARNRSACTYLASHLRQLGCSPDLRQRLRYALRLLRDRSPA

Row | Compound | IC50 (PLK1; GST-PLK1, 60 min reaction) | IC50 (PLK3; [1]) | IC50 (PLK2; GST-PLK2, 60 min reaction) | relative PLK2 activity of the enantiomers (PLK2) | IC50 (PLK1; GST-PLK1) | IC50 (PLK3; GST-PLK3, read-out: Plk3 IC50) | IC50 (PLK2; GST-PLK2)
1 | CCC1C(=O)N(C)c2cnc(-c3cnsc3-c3ccc(F)cc3)nc2N1c1cccc(C#N)c1 (racemic) [Example 401, 3-(7-ethyl-2-(5-(4-fluorophenyl)isothiazol-4-yl)-5-methyl-6-oxo-6,7-dihydropteridin-8(5H)-yl)benzonitrile] | – | – | – | – | 1 to 10 µM | 1 to 10 µM | < 1 µM
2 | CC[C@@H]1C(=O)N(C)c2cnc(-c3cn[nH]c3-c3nccs3)nc2N1c1ccc(F)c(F)c1 [Example 395, (R)-8-(3,4-difluorophenyl)-7-ethyl-5-methyl-2-(5-(thiazol-2-yl)-1H-pyrazol-4-yl)-7,8-dihydropteridin-6(5H)-one] | – | – | – | more active compound | < 1 µM | 1 to 10 µM | < 1 µM
3 | CC[C@@]12CCCN1c1nc(-n3ccnc3-c3ccc(F)c(Cl)c3)ncc1N(C)C2=O [Example 213, (S)-2-(2-(3-chloro-4-fluorophenyl)-1H-imidazol-1-yl)-6a-ethyl-5-methyl-6a,7,8,9-tetrahydropyrrolo[2,1-h]pteridin-6(5H)-one] | 10 to 50 µM | 10 to 50 µM | < 1 µM | – | – | – | –
4 | CC[C@]12CCCCN1c1nc(-n3ccnc3)ncc1N(C)C2=O [Example 287, (R)-6a-ethyl-2-(1H-imidazol-1-yl)-5-methyl-7,8,9,10-tetrahydro-5H-pyrido[2,1-h]pteridin-6(6aH)-one] | > 50 µM | > 50 µM | > 50 µM | – | – | – | –
5 | CN1C(=O)[C@H]2CCCN2c2nc(-c3ccncc3)ncc21 [Example 34, (R)-5-methyl-2-(pyridin-4-yl)-6a,7,8,9-tetrahydropyrrolo[2,1-h]pteridin-6(5H)-one] | > 50 µM | > 50 µM | > 50 µM | – | – | – | –
6 | CC[C@@H]1C(=O)N(C)c2cnc(N3CCNC(=O)C3)nc2N1C1CCCC1 [Example 214, (R)-8-cyclopentyl-7-ethyl-5-methyl-2-(3-oxopiperazin-1-yl)-7,8-dihydropteridin-6(5H)-one] | 1 to 10 µM | > 50 µM | 10 to 50 µM | – | – | – | –
7 | CC[C@@H]1CC[C@@]2(CC)C(=O)N(C)c3cnc(-n4ccnc4)nc3N12 [Example 334, (6aS,9R)-6a,9-diethyl-2-(1H-imidazol-1-yl)-5-methyl-6a,7,8,9-tetrahydropyrrolo[2,1-h]pteridin-6(5H)-one] | 1 to 10 µM | 10 to 50 µM | 1 to 10 µM | – | – | – | –
8 | CC[C@@H]1C(=O)N(C)c2cnc(-n3ccnc3-c3nccs3)nc2N1C(C)C [Example 151, (R)-7-ethyl-8-isopropyl-5-methyl-2-(2-(thiazol-2-yl)-1H-imidazol-1-yl)-7,8-dihydropteridin-6(5H)-one] | 1 to 10 µM | 10 to 50 µM | < 1 µM | – | – | – | –
9 | CC[C@@H]1C(=O)N(C)c2cnc(-c3cn[nH]c3-c3cscn3)nc2N1C(C)C [Example 320, (R)-7-ethyl-8-isopropyl-5-methyl-2-(5-(thiazol-4-yl)-1H-pyrazol-4-yl)-7,8-dihydropteridin-6(5H)-one] | 1 to 10 µM | 1 to 10 µM | < 1 µM | – | – | – | –
10 | CC[C@@H]1C(=O)N(C)c2cnc(-c3ccncc3CNC(=O)OC(C)(C)C)nc2N1C(C)C [Example 107, (R)-tert-butyl (4-(7-ethyl-8-isopropyl-5-methyl-6-oxo-5,6,7,8-tetrahydropteridin-2-yl)pyridin-3-yl)methylcarbamate] | > 50 µM | > 50 µM | > 50 µM | – | – | – | –
11 | CC[C@@]12CCCN1c1nc(-n3ccnc3-c3cccc(-c4cccnc4)c3)ncc1N(C)C2=O [Example 272, (S)-6a-ethyl-5-methyl-2-(2-(3-(pyridin-3-yl)phenyl)-1H-imidazol-1-yl)-6a,7,8,9-tetrahydropyrrolo[2,1-h]pteridin-6(5H)-one] | 10 to 50 µM | 10 to 50 µM | < 1 µM | – | – | – | –
12 | CC[C@@H]1C(=O)N(C)c2cnc(-c3c[nH]nc3-c3ccc(C(F)(F)F)cc3)nc2N1C(C)C [Example 167, (R)-7-ethyl-8-isopropyl-5-methyl-2-(3-(4-(trifluoromethyl)phenyl)-1H-pyrazol-4-yl)-7,8-dihydropteridin-6(5H)-one] | 1 to 10 µM | 10 to 50 µM | < 1 µM | – | – | – | –
13 | [2H]C([2H])([2H])N1C(=O)C(C([2H])([2H])C([2H])([2H])[2H])N(C([2H])(C([2H])([2H])[2H])C([2H])([2H])[2H])c2nc(-n3ccnc3-c3cccc(OC(F)(F)F)c3)ncc21 (stereo not shown) [Example 160, 7-perdeuteroethyl-8-perdeuteroisopropyl-5-trideuteromethyl-2-(2-(3-(trifluoromethoxy)phenyl)-1H-imidazol-1-yl)-7,8-dihydropteridin-6(5H)-one] | 1 to 10 µM | 10 to 50 µM | < 1 µM | – | – | – | –
14 | CCC12CCCCN1c1nc(-n3ccnc3-c3ccc(F)c(F)c3)ncc1N(C)C2=O (racemic) [Example 240, (+/−) 2-(2-(3,4-difluorophenyl)-1H-imidazol-1-yl)-6a-ethyl-5-methyl-7,8,9,10-tetrahydro-5H-pyrido[2,1-h]pteridin-6(6aH)-one] | 1 to 10 µM | 10 to 50 µM | < 1 µM | – | – | – | –
15 | CC[C@@H]1C(=O)N(C)c2cnc(-n3ccnc3-c3ccc(F)cc3)nc2N1CC1CC1 [Example 322, (R)-8-(cyclopropylmethyl)-7-ethyl-2-(2-(4-fluorophenyl)-1H-imidazol-1-yl)-5-methyl-7,8-dihydropteridin-6(5H)-one] | 1 to 10 µM | 1 to 10 µM | < 1 µM | – | – | – | –
16 | CC[C@@H]1C(=O)N(C)c2cnc(-c3ccncc3CNC(=O)c3ccccc3)nc2N1C1CCCC1 [Example 123, (R)—N-((4-(8-cyclopentyl-7-ethyl-5-methyl-6-oxo-5,6,7,8-tetrahydropteridin-2-yl)pyridin-3-yl)methyl)benzamide] | 10 to 50 µM | > 50 µM | 10 to 50 µM | – | – | – | –
17 | CC[C@@H]1C(=O)N(C)c2cnc(N3CCN(C)CC3)nc2N1C1CCCC1 [Example 210, (R)-8-cyclopentyl-7-ethyl-5-methyl-2-(4-methylpiperazin-1-yl)-7,8-dihydropteridin-6(5H)-one] | > 50 µM | > 50 µM | > 50 µM | – | – | – | –
18 | CC[C@@]12CCCN1c1nc(-n3ccnc3-c3cccc(F)c3)ncc1N(C)C2=O [Example 225, (S)-6a-ethyl-2-(2-(3-fluorophenyl)-1H-imidazol-1-yl)-5-methyl-6a,7,8,9-tetrahydropyrrolo[2,1-h]pteridin-6(5H)-one] | 1 to 10 µM | 10 to 50 µM | < 1 µM | – | – | – | –

Now from value to compound:

Row | IC50 (PLK1; GST-PLK1, 60 min reaction) | IC50 (PLK3; [1]) | IC50 (PLK2; GST-PLK2, 60 min reaction) | relative PLK2 activity of the enantiomers (PLK2) | IC50 (PLK1; GST-PLK1) | IC50 (PLK3; GST-PLK3, read-out: Plk3 IC50) | IC50 (PLK2; GST-PLK2) | Compound
19 | 1 to 10 µM | 1 to 10 µM | < 1 µM | more active compound | – | – | – | CC[C@@]12CCCCN1c1nc(-n3ccnc3-c3cccc(F)c3F)ncc1N(C)C2=O [Example 259, (S)-2-(2-(2,3-difluorophenyl)-1H-imidazol-1-yl)-6a-ethyl-5-methyl-7,8,9,10-tetrahydro-5H-pyrido[2,1-h]pteridin-6(6aH)-one]
20 | 1 to 10 µM | > 50 µM | 1 to 10 µM | – | – | – | – | CC[C@@H]1C(=O)N(C)c2cnc(-c3ccncc3NC(=O)OC)nc2N1C(C)C [Example 117, (R)-methyl 4-(7-ethyl-8-isopropyl-5-methyl-6-oxo-5,6,7,8-tetrahydropteridin-2-yl)pyridin-3-ylcarbamate]
21 | < 1 µM | 1 to 10 µM | < 1 µM | – | – | – | – | CC[C@@H]1C(=O)N(C)c2cnc(-n3ccnc3-c3cccc(Cl)c3)nc2N1C(C)C [Example 204, (R)-2-(2-(3-chlorophenyl)-1H-imidazol-1-yl)-7-ethyl-8-isopropyl-5-methyl-7,8-dihydropteridin-6(5H)-one]
22 | 1 to 10 µM | > 50 µM | < 1 µM | more active compound | – | – | – | CC[C@@]12CCCCN1c1nc(-n3ccnc3-c3cc(F)cc(F)c3)ncc1N(C)C2=O [Example 249, (S)-2-(2-(3,5-difluorophenyl)-1H-imidazol-1-yl)-6a-ethyl-5-methyl-7,8,9,10-tetrahydro-5H-pyrido[2,1-h]pteridin-6(6aH)-one]
23 | 1 to 10 µM | 10 to 50 µM | < 1 µM | – | – | – | – | CCC12CCCCN1c1nc(-n3ccnc3-c3ccccc3)ncc1N(C)C2=O (racemic) [Example 238, (+/−) 6a-ethyl-5-methyl-2-(2-phenyl-1H-imidazol-1-yl)-7,8,9,10-tetrahydro-5H-pyrido[2,1-h]pteridin-6(6aH)-one]
24 | < 1 µM | < 1 µM | < 1 µM | – | – | – | – | CC[C@@H]1C(=O)N(C)c2cnc(-c3cn[nH]c3-c3ccc(F)cc3F)nc2N1C(C)C [Example 312, (R)-2-(5-(2,4-difluorophenyl)-1H-pyrazol-4-yl)-7-ethyl-8-isopropyl-5-methyl-7,8-dihydropteridin-6(5H)-one]
25 | < 1 µM | 1 to 10 µM | < 1 µM | more active compound | – | – | – | [2H]C([2H])([2H])N1C(=O)[C@@H](C([2H])([2H])C([2H])([2H])[2H])N(C([2H])(C([2H])([2H])[2H])C([2H])([2H])[2H])c2nc(-n3ccnc3-c3cccc(F)c3)ncc21 [Example 202, (R)-7-perdeuteroethyl-2-(2-(3-fluorophenyl)-1H-imidazol-1-yl)-8-perdeuteroisopropyl-5-trideuteromethyl-7,8-dihydropteridin-6(5H)-one]
26 | < 1 µM | 1 to 10 µM | < 1 µM | – | – | – | – | CC[C@@H]1C(=O)N(C)c2cnc(-c3cnc4[nH]ccc4c3)nc2N1C1CCCC1 [Example 32, (R)-8-cyclopentyl-7-ethyl-5-methyl-2-(1H-pyrrolo[2,3-b]pyridin-5-yl)-7,8-dihydropteridin-6(5H)-one]
27 | < 1 µM | 1 to 10 µM | < 1 µM | – | – | – | – | CC[C@@H]1C(=O)N(C)c2cnc(-c3ccncc3N)nc2N1C1CCCC1 [Example 91, (R)-2-(3-aminopyridin-4-yl)-8-cyclopentyl-7-ethyl-5-methyl-7,8-dihydropteridin-6(5H)-one]
